Source: article PMC11796312, “Multifunctional, Fluorene‐Based Modulator of Cholinergic and GABAergic Neurotransmission as a Novel Drug Candidate for Palliative Treatment of Alzheimer's Disease” (Angewandte Chemie (International Ed. in English), 2024)
Where two headings read alike, the source gives them in different places.

What was measured:
[1] = molecular target: T1, human serotonin 5-HT6 receptor (Homo sapiens, UniProt P50406); assay: cAMP 5-HT6 functional assay; assay type: cell-based
T1 construct: host or cells: 1321N1
Description: Functional assays for 5-HT6 receptor
Test compounds were dissolved in dimethyl sulfoxide (DMSO) at a concentration of 10 mM.
Serial dilutions were prepared in a 96-well microplate in assay buffer, and 8 concentrations
were tested. For the 5-HT6, adenylyl cyclase activity was monitored using cryopreserved
cells were resuspended in stimulation buffer (HBSS, 5 mM HEPES, 0.5 IBMX, and 0.1%
BSA at pH 7.4) at 2x10^5 cells/ml. The same volume (10 μl) of cell suspension was added to
the tested compounds. Samples were loaded onto a white opaque half-area 96-well
reference agonist for the 5-HT6 receptor. The agonist and antagonist were added
simultaneously. Cell stimulation was performed for 30 minutes at room temperature. After
incubation, cAMP measurements were performed with homogeneous TR-FRET immunoassay
using the LANCE Ultra cAMP kit (PerkinElmer, USA). The volume of 10 μl of EucAMP
Tracer Working Solution and 10 μl of ULight-anti-cAMP Tracer Working Solution were
added, mixed, and incubated for 1 h. The TR-FRET signal was read on an EnVision
microplate reader (PerkinElmer, USA). IC 50 and EC 50 were determined by nonlinear

[2] = system: mouse microglial cells (BV-2); assay: Cell viability, PrestoBlue (immunotoxicity); assay type: cell-based; conditions: Mus musculus, BV-2, 24 h
Description: (§1) The mouse microglial cells (BV-2) were cultured using standard procedures. The cells were a generous gift from professor Bozena Kaminska-Kaczmarek from Laboratory of Molecular Neurobiology, Neurobiology Center, Nencki Institute of Experimental Biology, Polish Academy of Sciences, Warsaw, Poland. The cells were cultured in Dulbecco’s Modified Eagle’s Medium - high glucose, (DMEM, Glutamx ThermoFisher ) supplemented with 10% fetal bovine serum heat inactivated (ThermoFisher), with added 100 IU/ml penicillin (Sigma Aldrich) and 100 µg/ml streptomycin (Sigma Aldrich). […]
(§2) an area of 175 cm2 (Nunc), and incubated at 37◦C, 5% CO2. For the test of compounds with the BV-2 cells line, microglia cells were seeded on 96-well culture plate (Falcon) at a density of 2x10^4 cells per well in fresh medium. The cells were grown for 24 hours in the incubator (37°C, 5% CO2) before performing experiments. […]
(§3) Preparation of stock solutions of tested compounds
(§4) Stock solutions were prepared in the concentration of 10 mM for test and reference compounds. Minimum 1 mg of each tested compound was weighed and dissolved in appropriate volume of dimethyl sulfoxide. Serial dilutions were prepared in DMSO and then the diluted compounds were transferred to PBS. Before assays eventual precipitation or opalescence was checked. All experiments were performed in duplicates, in three independent experiments. Cell viability was measured after 24 hours of incubation with tested cell line.
(§5) Cell viability was evaluated using the Presto Blue reagent (Thermo Fisher), according to the manufacturer procedures. Following 24 hours of incubation with the tested molecule, PrestoBlue reagent was added to a microplate well in an amount equal to one tenth of the remaining medium volume. The resulting mixture was incubated for 15 minutes at 37°C, and the fluorescence intensity (EX 530; EM 580 nm) was measured in the plate reader POLARstar Omega, (BMG Labtech). The results (viability values) are provided as a percentage of live cells with respect to DMSO (control sample).
(§6) Viability values were calculated as a percentage of live cells with respect to the control sample (DMSO). The negative control was medium without cells. IC 50 was determined by […]
(§7) nonlinear regression analysis using GraphPad Prism 9.0 software. All values are expressed as […]
(§8) Table S10. The viability of cells. neurotoxicity immuntoxicity
(§9) The results (viability values) are provided as a percentage of live cells with respect to DMSO (control sample)
(§10) Table S11. The viability of cells.

[3] = Cell viability, PrestoBlue (immunotoxicity); assay type: cell-based; conditions: mouse, 24 h, read-out: viability, immuntoxicity X [%]
Description: as §1, §2, §3, §4, §5, §6, §7, §8, §9, §10

mGAT2 = molecular target: T2, mGAT2 (Mus musculus, UniProt P31651); assay: [3H]GABA uptake assay, mGAT2; assay type: cell-based
T2 sequence (P31651 1-614): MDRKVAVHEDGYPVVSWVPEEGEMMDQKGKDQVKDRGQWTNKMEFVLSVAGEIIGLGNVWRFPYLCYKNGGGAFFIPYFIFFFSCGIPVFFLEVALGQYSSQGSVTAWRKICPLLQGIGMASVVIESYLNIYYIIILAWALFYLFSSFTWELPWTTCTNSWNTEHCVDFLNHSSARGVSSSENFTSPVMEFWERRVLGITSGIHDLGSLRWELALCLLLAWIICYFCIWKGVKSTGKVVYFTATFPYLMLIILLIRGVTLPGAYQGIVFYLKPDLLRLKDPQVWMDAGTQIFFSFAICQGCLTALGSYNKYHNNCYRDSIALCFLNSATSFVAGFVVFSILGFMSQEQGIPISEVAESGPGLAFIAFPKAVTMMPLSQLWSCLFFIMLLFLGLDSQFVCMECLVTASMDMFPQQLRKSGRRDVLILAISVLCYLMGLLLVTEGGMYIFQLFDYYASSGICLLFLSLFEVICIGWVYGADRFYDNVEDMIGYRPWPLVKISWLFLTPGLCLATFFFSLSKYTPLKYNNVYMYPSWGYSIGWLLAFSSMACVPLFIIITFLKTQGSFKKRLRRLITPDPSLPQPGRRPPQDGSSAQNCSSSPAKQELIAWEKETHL

[4] = molecular target: T3, human butyrylcholinesterase (hBuChE) (Homo sapiens, UniProt P06276); assay: biochemical; conditions: means±SEM of at least three experiments
T3 construct: from human plasma was from Vivonics (Bedford, MA, USA); purchased Vivonics (Bedford, MA, USA); host or cells: human plasma
T3 sequence (P06276 29-602): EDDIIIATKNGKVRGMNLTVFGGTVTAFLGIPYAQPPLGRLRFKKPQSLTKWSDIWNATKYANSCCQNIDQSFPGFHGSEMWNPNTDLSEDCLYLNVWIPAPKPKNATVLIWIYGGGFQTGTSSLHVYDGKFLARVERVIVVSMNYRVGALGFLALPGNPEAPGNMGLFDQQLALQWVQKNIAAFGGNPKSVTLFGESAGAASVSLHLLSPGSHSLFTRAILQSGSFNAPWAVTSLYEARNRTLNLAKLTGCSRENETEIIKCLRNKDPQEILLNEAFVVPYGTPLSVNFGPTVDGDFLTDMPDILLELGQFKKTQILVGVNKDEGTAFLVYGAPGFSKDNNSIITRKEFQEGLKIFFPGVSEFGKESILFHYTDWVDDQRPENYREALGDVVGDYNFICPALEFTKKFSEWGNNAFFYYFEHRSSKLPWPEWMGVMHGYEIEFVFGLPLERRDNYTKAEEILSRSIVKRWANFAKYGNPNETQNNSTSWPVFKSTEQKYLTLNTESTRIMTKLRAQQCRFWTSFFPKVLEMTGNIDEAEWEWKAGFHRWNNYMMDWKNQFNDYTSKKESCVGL

T1 sequence (P50406 whole entry): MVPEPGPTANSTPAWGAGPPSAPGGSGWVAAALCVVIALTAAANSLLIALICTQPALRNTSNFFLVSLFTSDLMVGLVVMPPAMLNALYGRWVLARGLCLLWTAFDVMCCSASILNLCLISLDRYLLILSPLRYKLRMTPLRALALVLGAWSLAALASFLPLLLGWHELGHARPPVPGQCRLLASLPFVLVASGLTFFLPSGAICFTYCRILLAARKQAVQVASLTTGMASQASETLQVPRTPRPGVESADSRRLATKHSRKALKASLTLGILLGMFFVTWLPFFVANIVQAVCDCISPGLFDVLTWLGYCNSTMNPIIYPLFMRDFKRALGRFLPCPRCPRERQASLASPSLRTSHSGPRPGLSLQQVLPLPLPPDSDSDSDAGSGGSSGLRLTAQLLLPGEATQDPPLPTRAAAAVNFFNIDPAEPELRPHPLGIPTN

## O[C@H](CNCC1CC1)[C@H](Cc1ccccc1)NC1c2ccccc2-c2ccccc21 [Compound 6]
[1]
  EC50: 2.42 µM
[1]; read-out: 5-HT6 agonist mode E max % [10^-5 M]
  Emax: 41%
[1]; read-out: 5-HT6 antagonist mode E max %
  Emax: 3%
[2]; read-out: IMMUNOTOXICTY IC50
  IC50: 18.9 µM
[2]; read-out: IMMUNOTOXICTY pIC (converted)
  IC50: 19.1 µM
[3]; BV-2, 0.1 µM
  viability at 24 h, 0.1 µM: 102%
[3]; BV-2, 1 µM
  viability at 24 h, 1 µM: 103%
[3]; BV-2, 10 µM
  viability at 24 h, 10 µM: 94.8%
[3]; BV-2, 50 µM
  viability at 24 h, 50 µM: 2%
[3]; BV-2, 100 µM, vs DMSO
  viability at 24 h, 100 µM: 1.3%
mGAT2
  IC50: 10.7 µM
[4]
  IC50: 0.21 ± 0.01 µM
